Test results as given in patent US20250122160A1, “PROTEIN TYROSINE PHOSPHATASE INHIBITORS AND METHODS OF USE THEREOF” (Calico Life Sciences LLC, priority 0001, published 2025).

Tests used:
[1] = biological target: T1, His tagged PTPN2 (TC45) protein (Homo sapiens, UniProt P17706); assay: Mobility shift assay (MSA) to determine potency of PTPN2 inhibitors; type: biochemical; conditions: 0.5 nM enzyme, 2 μM substrate
T1 construct: made in house
T1 sequence (P17706 with tags, fused parts or gaps isoform P17706-2): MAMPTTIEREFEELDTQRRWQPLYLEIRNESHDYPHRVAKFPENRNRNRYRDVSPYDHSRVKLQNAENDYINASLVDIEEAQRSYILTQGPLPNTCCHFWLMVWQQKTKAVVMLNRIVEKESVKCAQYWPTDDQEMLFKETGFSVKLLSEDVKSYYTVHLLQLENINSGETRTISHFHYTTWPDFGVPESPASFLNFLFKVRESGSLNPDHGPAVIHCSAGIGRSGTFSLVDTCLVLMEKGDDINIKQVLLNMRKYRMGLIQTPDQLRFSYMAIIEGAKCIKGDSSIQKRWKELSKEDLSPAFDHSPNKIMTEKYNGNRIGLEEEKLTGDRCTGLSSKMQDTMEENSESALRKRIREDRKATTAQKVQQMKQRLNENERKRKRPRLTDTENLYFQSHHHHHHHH
Outline: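 His-tagged human PTPN2 (TC45), 0.5 nM, preincubated 10 min at room temperature with compound (12-point, 1:3 dilutions) in HEPES pH 7.5 buffer with EGTA, EDTA, Tween 20 and DTT. Then 2 μM OG488-labelled phospho-insulin-receptor peptide was added for 10 min and quenched. % conversion was read by mobility shift, and IC50 came from % inhibition.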

[2] = biological target: T2, His tagged full-length PTPN1 protein (Homo sapiens, UniProt P18031); assay: Mobility shift assay (MSA) to determine potency of PTPN1 inhibitors; type: biochemical; conditions: 0.5 nM enzyme, 2 μM substrate
T2 construct: made in house
T2 sequence (P18031 with tags, fused parts or gaps): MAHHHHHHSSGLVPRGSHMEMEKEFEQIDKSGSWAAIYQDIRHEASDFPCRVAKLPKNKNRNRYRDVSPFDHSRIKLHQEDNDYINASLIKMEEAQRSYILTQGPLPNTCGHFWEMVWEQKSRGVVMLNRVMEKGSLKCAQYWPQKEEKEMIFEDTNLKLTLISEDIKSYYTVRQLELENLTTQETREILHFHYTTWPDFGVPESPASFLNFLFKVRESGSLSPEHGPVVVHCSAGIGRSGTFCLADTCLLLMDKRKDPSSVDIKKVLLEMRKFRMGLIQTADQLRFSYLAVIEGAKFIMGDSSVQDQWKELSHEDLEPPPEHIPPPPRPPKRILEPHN
Outline: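 His-tagged full-length human PTPN1 (0.5 nM) preincubated with compound 10 min at room temperature in pH 7.5 HEPES buffer with EGTA, EDTA, Tween 20 and DTT. Dephosphorylation of 2 μM fluorescent phospho-insulin-receptor peptide over 10 min measured by mobility shift. IC50 from % inhibition across a 12-point, 1:3 dilution series.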

| Structure (SMILES) | IC50 [1] | IC50 [2] |
| --- | --- | --- |
| O=C1CN(c2c(O)cc3c(c2F)C[C@H](NCC2CCCOC2)CC3)S(=O)(=O)N1 (stereo partly drawn) [Compound 352, 5-[(7R)-1-fluoro-3-hydroxy-7-{[(oxan-3-yl)methyl]amino}-5,6,7,8-tetrahydronaphthalen-2-yl]-1λ^6,2,5-thiadiazolidine-1,1,3-trione] | 1 to 10 nM | 1 to 10 nM |
| O=C1CN(c2c(O)cc3c(c2F)CN(C2CC4(CNC4)C2)CC3)S(=O)(=O)N1 [Compound 160] | 10 to 100 nM | 10 to 100 nM |
| O=C1CN(c2c(O)cc3c(c2F)C[C@H](NCc2cccnc2)CC3)S(=O)(=O)N1 [Compound 347, 5-[(7R)-1-fluoro-3-hydroxy-7-{[(pyridin-3-yl)methyl]amino}-5,6,7,8-tetrahydronaphthalen-2-yl]-1λ^6,2,5-thiadiazolidine-1,1,3-trione] | 10 to 100 nM | 10 to 100 nM |
| CC(C)CNC(=O)N1CCc2cc(O)c(N3CC(=O)NS3(=O)=O)c(F)c2C1 [Compound 206] | 10 to 100 nM | 10 to 100 nM |
| O=C1CN(c2c(O)cc3c(c2F)CN(CCC2(C(F)(F)F)CC2)CC3)S(=O)(=O)N1 [Compound 243] | 1 to 10 nM | 1 to 10 nM |
| COCCCCN[C@@H]1CCc2cc(O)c(N3CC(=O)NS3(=O)=O)c(F)c2C1 [Compound 360, 5-{(7R)-1-fluoro-3-hydroxy-7-[(4-methoxybutyl)amino]-5,6,7,8-tetrahydronaphthalen-2-yl}-1λ^6,2,5-thiadiazolidine-1,1,3-trione] | 1 to 10 nM | 10 to 100 nM |
| CC(C)(C)OC(=O)N[C@@H]1CCc2cc(O)c(N3CC(=O)NS3(=O)=O)c(F)c2C1 [Compound 341, tert-butyl [(2R)-8-fluoro-6-hydroxy-7-(1,1,4-trioxo-1λ^6,2,5-thiadiazolidin-2-yl)-1,2,3,4-tetrahydronaphthalen-2-yl]carbamate] | 10 to 100 nM | 10 to 100 nM |
| CC(C)C(F)CNC1CCc2cc(O)c(N3CC(=O)NS3(=O)=O)c(F)c2C1 (stereo not shown) [Compound 334, 5-{1-fluoro-7-[(2-fluoro-3-methylbutyl)amino]-3-hydroxy-5,6,7,8-tetrahydronaphthalen-2-yl}-1λ^6,2,5-thiadiazolidine-1,1,3-trione] | 1 to 10 nM | 1 to 10 nM |
| CCCCC(=N)N1CCc2cc(O)c(N3CC(=O)NS3(=O)=O)c(F)c2C1 [Compound 158] | 10 to 100 nM | > 100 nM |
| COCC(C)(C)CNC(=O)N1CCc2cc(O)c(N3CC(=O)NS3(=O)=O)c(F)c2C1 [Compound 279] | 10 to 100 nM | 10 to 100 nM |
| O=C1CN(c2c(O)cc3c(c2F)CN(CCC2CCOCC2)CC3)S(=O)(=O)N1 [Compound 214] | 10 to 100 nM | 10 to 100 nM |
| O=C1CN(c2c(O)cc3c(c2F)CN(CC2CC(F)(F)C2)CC3)S(=O)(=O)N1 [Compound 162] | 1 to 10 nM | 10 to 100 nM |
| O=C1CN(c2c(O)cc3c(c2F)CC(NCCC2COC2)CC3)S(=O)(=O)N1 (stereo not shown) [Compound 330, 5-(1-fluoro-3-hydroxy-7-{[2-(oxetan-3-yl)ethyl]amino}-5,6,7,8-tetrahydronaphthalen-2-yl)-1λ^6,2,5-thiadiazolidine-1,1,3-trione] | > 100 nM | > 100 nM |
| O=C1CN(c2c(O)cc3c(c2F)C[C@H](NCc2nccs2)CC3)S(=O)(=O)N1 [Compound 367, 5-[(7R)-1-fluoro-3-hydroxy-7-{[(1,3-thiazol-2-yl)methyl]amino}-5,6,7,8-tetrahydronaphthalen-2-yl]-1λ^6,2,5-thiadiazolidine-1,1,3-trione] | 10 to 100 nM | 10 to 100 nM |
| CC1(C)COC(CCCCN2CCc3cc(O)c(N4CC(=O)NS4(=O)=O)c(F)c3C2)OC1 [Compound 296] | 10 to 100 nM | > 100 nM |
| Cc1noc(C)c1CCN1CCc2cc(O)c(N3CC(=O)NS3(=O)=O)c(F)c2C1 [Compound 211] | 1 to 10 nM | 1 to 10 nM |
| Cc1c(CCN2CCc3cc(O)c(N4CC(=O)NS4(=O)=O)c(F)c3C2)cnn1C [Compound 257] | 1 to 10 nM | 1 to 10 nM |
| Cc1nn(C(F)F)c(C)c1CCN1CCc2cc(O)c(N3CC(=O)NS3(=O)=O)c(F)c2C1 [Compound 238] | 1 to 10 nM | 1 to 10 nM |

| Structure (SMILES) | IC50 [1] | IC50 [2] |
| --- | --- | --- |
| O=C1CN(c2c(O)cc3c(c2F)CCCO3)S(=O)(=O)N1 [Compound 111, 5-(5-fluoro-7-hydroxy-3,4-dihydro-2H-1-benzopyran-6-yl)-1λ^6,2,5-thiadiazolidine-1,1,3-trione] | 10 to 100 nM | 10 to 100 nM |
| CC1(C)CCc2c(cc(O)c(N3CC(=O)NS3(=O)=O)c2F)O1 [Compound 112] | > 100 nM | > 100 nM |
| O=C1CN(c2c(O)cc3c(c2F)C[C@H](NCCC2CC(F)(F)C2)CC3)S(=O)(=O)N1 [Compound 202] | < 1 nM | 1 to 10 nM |
| O=C1CN(c2c(O)cc3c(c2F)C[C@H](NCc2ccnnc2)CC3)S(=O)(=O)N1 [Compound 368, 5-[(7R)-1-fluoro-3-hydroxy-7-{[(pyridazin-4-yl)methyl]amino}-5,6,7,8-tetrahydronaphthalen-2-yl]-1λ^6,2,5-thiadiazolidine-1,1,3-trione] | 10 to 100 nM | 10 to 100 nM |
| C[C@@H]1C[C@@H](N)Cc2c1cc(O)c(N1CC(=O)NS1(=O)=O)c2F [Compound 397, 5-[(5R,7R)-7-amino-1-fluoro-3-hydroxy-5-methyl-5,6,7,8-tetrahydronaphthalen-2-yl]-1λ^6,2,5-thiadiazolidine-1,1,3-trione] | > 100 nM | > 100 nM |
| N[C@H](CCC1CCCCC1)C(=O)N1CCc2cc(O)c(N3CC(=O)NS3(=O)=O)c(F)c2C1 [Compound 250] | 10 to 100 nM | 10 to 100 nM |
| O=C1CN(c2c(O)cc3c(c2F)CC(CNCCO)CC3)S(=O)(=O)N1 (stereo not shown) [Compound 403, 5-(1-fluoro-3-hydroxy-7-{[(2-hydroxyethyl)amino]methyl}-5,6,7,8-tetrahydronaphthalen-2-yl)-1λ^6,2,5-thiadiazolidine-1,1,3-trione] | 10 to 100 nM | 10 to 100 nM |
| CCCCCN1CCc2cc(O)c(N3CC(=O)NS3(=O)=O)c(F)c2C1 [Compound 298] | 10 to 100 nM | 10 to 100 nM |
| O=C1CN(c2c(O)cc3c(c2F)CN(CCCO)CC3)S(=O)(=O)N1 [Compound 244] | 10 to 100 nM | 10 to 100 nM |
| O=C1CN(c2c(O)cc3c(c2F)C[C@H](NCC2CCC(C(F)(F)F)CC2)CO3)S(=O)(=O)N1 (stereo partly drawn) [Compound 380, 5-[(3S)-5-fluoro-7-hydroxy-3-({[4-(trifluoromethyl)cyclohexyl]methyl}amino)-3,4-dihydro-2H-1-benzopyran-6-yl]-1λ^6,2,5-thiadiazolidine-1,1,3-trione] | 10 to 100 nM | 10 to 100 nM |
| O=C1CN(c2c(O)cc3c(c2F)C[C@H](NCC2CCOC2)CC3)S(=O)(=O)N1 (stereo partly drawn) [Compound 361, 5-[(7R)-1-fluoro-3-hydroxy-7-{[(oxolan-3-yl)methyl]amino}-5,6,7,8-tetrahydronaphthalen-2-yl]-1λ^6,2,5-thiadiazolidine-1,1,3-trione] | 1 to 10 nM | 10 to 100 nM |
| CC(=O)NC1CCc2cc(O)c(N3CC(=O)NS3(=O)=O)c(F)c2C1 (stereo not shown) [Compound 322] | 10 to 100 nM | 10 to 100 nM |
| O=C1CN(c2c(O)cc3c(c2F)C[C@H](NCC2CCCCO2)CC3)S(=O)(=O)N1 (stereo partly drawn) [Compound 350, 5-[(7R)-1-fluoro-3-hydroxy-7-{[(oxan-2-yl)methyl]amino}-5,6,7,8-tetrahydronaphthalen-2-yl]-1λ^6,2,5-thiadiazolidine-1,1,3-trione] | 1 to 10 nM | 10 to 100 nM |
| O=C1CN(c2c(O)cc3c(c2F)CN(CCC2CC(F)(F)C2)CC3)S(=O)(=O)N1 [Compound 192] | 10 to 100 nM | 10 to 100 nM |
| CC(CN[C@@H]1CCc2cc(O)c(N3CC(=O)NS3(=O)=O)c(F)c2C1)C(F)(F)F (stereo partly drawn) [Compound 348, 5-{(7R)-1-fluoro-3-hydroxy-7-[(3,3,3-trifluoro-2-methylpropyl)amino]-5,6,7,8-tetrahydronaphthalen-2-yl}-1λ^6,2,5-thiadiazolidine-1,1,3-trione] | 1 to 10 nM | 10 to 100 nM |
| NCC1CCc2cc(O)c(N3CC(=O)NS3(=O)=O)c(F)c2C1 (stereo not shown) [Compound 389, 5-[7-(aminomethyl)-1-fluoro-3-hydroxy-5,6,7,8-tetrahydronaphthalen-2-yl]-1λ^6,2,5-thiadiazolidine-1,1,3-trione] | 10 to 100 nM | 10 to 100 nM |
| NC[C@H]1Cc2cc(O)c(N3CC(=O)NS3(=O)=O)c(F)c2C1 (single isomer, unassigned) [Compound 407] | 10 to 100 nM | 10 to 100 nM |
